# Biological target: T1, Human NK1 Receptor (Homo sapiens, UniProt P25103)
# T1 construct: endogenous in cells; host or cells: Human lymphoma IM9 cells (whole cells)
# Assay: In Vitro Human NK1 Receptor Binding Assay ([125I]Bolton-Hunter substance P displacement, IM9 cells)
# Conditions: human NK1 receptor, IM9 cells, [125I]Bolton-Hunter substance P; read-out: IC50 (nM) hNK1
# Method in brief: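 Test compounds competed with 0.05-0.1 nM [125I]Bolton-Hunter substance P for binding to intact IM9 cells over 50 min at 21° C, pH 7.4 buffer with MnCl2 and peptidase inhibitors. […] [Sar9, Met(O2)11] substance P gave non-specific binding. Bound counts were measured after filtration and fitted iteratively.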
# T1 sequence (P25103 whole entry): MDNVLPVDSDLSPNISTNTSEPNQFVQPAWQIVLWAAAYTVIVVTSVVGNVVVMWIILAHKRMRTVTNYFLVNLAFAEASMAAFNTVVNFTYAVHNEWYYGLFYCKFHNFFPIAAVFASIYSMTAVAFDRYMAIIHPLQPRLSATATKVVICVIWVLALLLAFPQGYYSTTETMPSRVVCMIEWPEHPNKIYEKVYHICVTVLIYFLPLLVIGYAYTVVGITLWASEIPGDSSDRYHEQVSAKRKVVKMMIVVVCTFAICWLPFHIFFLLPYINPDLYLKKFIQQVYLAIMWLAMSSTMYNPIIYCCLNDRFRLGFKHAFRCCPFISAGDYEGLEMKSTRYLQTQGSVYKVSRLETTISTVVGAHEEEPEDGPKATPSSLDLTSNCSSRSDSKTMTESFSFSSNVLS
row,Compound,IC50
1,"CC(Cc1c[nH]c2ccccc12)(NCc1cc2ccccc2o1)C(=O)NCc1ccc(Cl)cc1Cl (centres unmarked) [compound 46, 2-[(Benzofuran-2-ylmethyl)-amino]-N-(2,4-dichloro-benzyl)-3-(1H-indol-3-yl)-2-methyl-propionamide]",1560 nM
2,"CC(Cc1c[nH]c2ccccc12)(NCc1cc2ccccc2o1)C(=O)NCCc1ccc(S(N)(=O)=O)cc1 (centres unmarked) [compound 47, 2-[(Benzofuran-2-ylmethyl)-amino]-3-(1H-indol-3-yl)-2-methyl-N-[2-(4-sulfamoyl-phenyl)-ethyl]-propionamide]",7620 nM
3,"CC(Cc1c[nH]c2ccccc12)(NCc1cc2ccccc2o1)C(=O)NCc1c(N)cccc1F (centres unmarked) [compound 48, N-(2-Amino-6-fluoro-benzyl)-2-[(benzofuran-2-ylmethyl)-amino]-3-(1H-indol-3-yl)-2-methyl-propionamide]",6420 nM
4,"CC(Cc1c[nH]c2ccccc12)(NCc1cc2ccccc2o1)C(=O)NCC1CCCCC1O (centres unmarked) [compound 49, 2-[(Benzofuran-2-ylmethyl)-amino]-N (2-hydroxy-cyclohexylmethyl)-3-(1H-indol-3-yl)-2-methyl-propionamide]",1550 nM
5,"CC(Cc1c[nH]c2ccccc12)(NCc1cc2ccccc2o1)C(=O)NCC(O)c1ccccc1 (centres unmarked) [compound 50, 2-[(Benzofuran-2-ylmethyl)-amino]-N-(2-hydroxy-2-phenyl-ethyl)-3-(1H-indol-3-yl)-2-methyl-propionamide]",1330 nM
6,"CC(Cc1c[nH]c2ccccc12)(NCc1cc2ccccc2o1)C(=O)NCc1cc(C(F)(F)F)cc(C(F)(F)F)c1 (centres unmarked) [compound 51, 2-[(Benzofuran-2-ylmethyl)-amino]-N-(3,5-bis-trifluoromethyl-benzyl)-3-(1H-indol-3-yl)-2-methyl-propionamide]",179 nM
7,"CN1CCCC1CCNC(=O)C(C)(Cc1c[nH]c2ccccc12)NCc1cc2ccccc2o1 (centres unmarked) [compound 52, 2-[(Benzofuran-2-ylmethyl)-amino]-3-(1H-indol-3-yl)-2-methyl-N-[2-(1-methyl-pyrrolidin-2-yl)-ethyl]-propionamide]",> 10000 nM
8,"CC(Cc1c[nH]c2ccccc12)(NCc1cc2ccccc2o1)C(=O)NCCc1ccccc1 (centres unmarked) [compound 53, 2-[(Benzofuran-2-ylmethyl)-amino]-3-(1H-indol-3-yl)-2-methyl-N-phenethyl-propionamide]",262 nM
9,"Cc1cccc(CNC(=O)C(C)(Cc2c[nH]c3ccccc23)NCc2cc3ccccc3o2)c1C (centres unmarked) [compound 54, 2-[(Benzofuran-2-ylmethyl)-amino]-N-(2,3-dimethyl-benzyl)-3-(1H-indol-3-yl)-2-methyl-propionamide]",834 nM
10,"COc1cccc(CNC(=O)C(C)(Cc2c[nH]c3ccccc23)NCc2cc3ccccc3o2)c1 (centres unmarked) [compound 55, 2-[(Benzofuran-2-ylmethyl)-amino]-3-(1H-indol-3-yl)-N-(3-methoxy-benzyl)-2-methyl-propionamide]",643 nM
11,"CC(Cc1c[nH]c2ccccc12)(NCc1cc2ccccc2o1)C(=O)NCCc1ccc(N)cc1 (centres unmarked) [compound 56, N-[2-(4-Amino-phenyl)-ethyl]-2-[(benzofuran-2-ylmethyl)-amino]-3-(1H-indol-3-yl)-2-methyl-propionamide]",3230 nM
12,"CC(Cc1c[nH]c2ccccc12)(NCc1cc2ccccc2o1)C(=O)NCc1cccc(OC(F)(F)F)c1 (centres unmarked) [compound 59, 2-[(Benzofuran-2-ylmethyl)-amino]-3-(1H-indol-3-yl)-2-methyl-N-(3-trifluoromethoxy-benzyl)-propionamide]",> 10000 nM

# Second part, the molecule after the results:
row,IC50,Compound
1,964 nM,"CN(C)c1ccc(CNC(=O)C(C)(Cc2c[nH]c3ccccc23)NCc2cc3ccccc3o2)cc1 (centres unmarked) [compound 60, 2-[(Benzofuran-2-ylmethyl)-amino]-N-(4-dimethylamino-benzyl)-3-(1H-indol-3-yl)-2-methyl-propionamide]"
2,61 nM,"CC(Cc1c[nH]c2ccccc12)(NCc1cc2ccccc2o1)C(=O)NCc1ccc(F)cc1 (centres unmarked) [compound 61, 2-[(Benzofuran-2-ylmethyl)-amino]-N-(4-fluoro-benzyl)-3-(1H-indol-3-yl)-2-methyl-propionamide]"
3,837 nM,"CC(Cc1c[nH]c2ccccc12)(NCc1cc2ccccc2o1)C(=O)NCc1ccc(N)cc1 (centres unmarked) [compound 62, N-(4-Amino-benzyl)-2-[(benzofuran-2-ylmethyl)-amino]-3-(1H-indol-3-yl)-2-methyl-propionamide]"
4,58 nM,"CCC(NC(=O)C(C)(Cc1c[nH]c2ccccc12)NCc1cc2ccccc2o1)c1ccccc1 (centres unmarked) [compound 63, 2-[(Benzofuran-2-ylmethyl)-amino]-3-(1H-indol-3-yl)-2-methyl-N-(1-phenyl-propyl)-propionamide]"
5,76 nM,"CC(Cc1c[nH]c2ccccc12)(NCc1cc2ccccc2o1)C(=O)NCc1ccc(Cl)cc1 (centres unmarked) [compound 64, 2-[(Benzofuran-2-ylmethyl)-amino]-N-(4-chloro-benzyl)-3-(1H-indol-3-yl)-2-methyl-propionamide]"
6,700 nM,"CC(Cc1c[nH]c2ccccc12)(NCc1cc2ccccc2o1)C(=O)NCc1ccccc1Br (centres unmarked) [compound 65, 2-[(Benzofuran-2-ylmethyl)-amino]-N-(2-bromo-benzyl)-3-(1H-indol-3-yl)-2-methyl-propionamide]"
7,3440 nM,"CC(Cc1c[nH]c2ccccc12)(NCc1cc2ccccc2o1)C(=O)NCc1ccc(OC(F)(F)F)cc1 (centres unmarked) [compound 66, 2-[(Benzofuran-2-ylmethyl)-amino]-3-(1H-indol-3-yl)-2-methyl-N-(4-trifluoromethoxy-benzyl)-propionamide]"
8,312 nM,"COc1ccc(CNC(=O)C(C)(Cc2c[nH]c3ccccc23)NCc2cc3ccccc3o2)cc1 (centres unmarked) [compound 68, 2-[(Benzofuran-2-ylmethyl)-amino]-3-(1H-indol-3-yl)-N-(4-methoxy-benzyl)-2-methyl-propionamide]"
9,12 nM,"CC(NC(=O)C(C)(Cc1c[nH]c2ccccc12)NCc1cc2ccccc2o1)c1ccccn1 (centres unmarked) [compound 69, 2-[(Benzofuran-2-ylmethyl)-amino]-3-(1H-indol-3-yl)-2-methyl-N-(1-pyridin-2-yl-ethyl)-propionamide]"
10,216 nM,"CC(Cc1c[nH]c2ccccc12)(NCc1cc2ccccc2o1)C(=O)NCCC1CCCCC1 (centres unmarked) [compound 70, 2-[(Benzofuran-2-ylmethyl)-amino]-N-(2-cyclohexyl-ethyl)-3-(1H-indol-3-yl)-2-methyl-propionamide]"
11,144 nM,"Cc1ccc(CNC(=O)C(C)(Cc2c[nH]c3ccccc23)NCc2cc3ccccc3o2)cc1 (centres unmarked) [compound 71, 2-[(Benzofuran-2-ylmethyl)-amino]-3-(1H-indol-3-yl)-2-methyl-N-(4-methyl-benzyl)-propionamide]"
12,18 nM,"CC(Cc1c[nH]c2ccccc12)(NCc1cc2ccccc2o1)C(=O)NCc1cccc(Br)c1 (centres unmarked) [compound 72, 2-[(Benzofuran-2-ylmethyl)-amino]-N-(3-bromo-benzyl)-3-(1H-indol-3-yl)-2-methyl-propionamide]"
13,1230 nM,"CC(Cc1c[nH]c2ccccc12)(NCc1cc2ccccc2o1)C(=O)NCC(O)c1ccccc1 (centres unmarked) [compound 73, 2-[(Benzofuran-2-ylmethyl)-amino]-N-(2-hydroxy-2-phenyl-ethyl)-3-(1H-indol-3-yl)-2-methyl-propionamide]"
14,12 nM,"CC(Cc1c[nH]c2ccccc12)(NCc1cc2ccccc2o1)C(=O)NCc1cccc(C(F)(F)F)c1 (centres unmarked) [compound 74, 2-[(Benzofuran-2-ylmethyl)-amino]-3-(1H-indol-3-yl)-2-methyl-N-(3-trifluoromethyl-benzyl)-propionamide]"
